Test systems include 786-0; CAKI-1; IGROV-1; KM12; M14; MDA-MB-435; MDA-N; MOLT-4; NCI-H23; NCI-H522; NCI/ADR-RES; RPMI-8226; SNB-19; SW-620; TK-10; U-251; UO-31; RXF 393; Hs-578T.
Holding throughout (assay): NCI tumour cell line growth inhibition, 48 h

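Exposure lasted 48 hours, with cells grown in 96-well plates and compounds tested at five concentrations. GI50 marks 50% less growth.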 Active and inactive are the calls of the source. No stated cut-off is given here; in the data, active = GI50 up to about 1.1 µM and inactive = higher. Where only a bound is given, the exact number is not on record here.

As for `CN(C)CCNC(=O)c1cccc2c(NC(CCC(N)=O)C(=O)O)c3ccccc3nc12` (stereo unspecified), the GI50 is 9.84 µM (inactive) in the assay on 786-0; 11.3 µM (inactive) with CAKI-1; 5.25 µM (inactive) in the assay with IGROV-1; 7.78 µM (inactive) in the assay with KM12; 7.55 µM (inactive) in the assay with M14; 6.14 µM (inactive) with MDA-MB-435. For the same compound, the GI50 is 8.73 µM (inactive) in the assay on MDA-N; 3.29 µM (inactive) in the assay with MOLT-4; 3.45 µM (inactive) with NCI-H23; 5.75 µM (inactive) in the assay with NCI-H522; 9.98 µM (inactive) with NCI/ADR-RES; 9.57 µM (inactive) in the assay on RPMI-8226. Moreover, the GI50 is 3.49 µM (inactive) with SNB-19; 4.55 µM (inactive) with SW-620; 34.1 µM (inactive) in the assay with TK-10; 8.15 µM (inactive) with U-251; 1.55 µM (inactive) in the assay with UO-31.
`COC(=O)C1C(O)C(C(=O)OC)C(C)N(C)C1C` (stereo unspecified): the GI50 in the assay with 786-0, in the assay with CAKI-1, in the assay with IGROV-1, in the assay on KM12, with M14 and in the assay with MDA-MB-435 was > 100 µM (inactive) throughout. Moreover, the GI50 in the assay on MDA-N, with MOLT-4, with NCI-H23, in the assay on NCI/ADR-RES, in the assay with RPMI-8226 and in the assay with RXF 393 was > 100 µM (inactive) throughout. For the same compound, the GI50 with SNB-19, in the assay with SW-620, in the assay on TK-10, in the assay on U-251 and in the assay with UO-31 was > 100 µM (inactive) each time.
`O=C(/C=C/c1cccs1)c1ccc(Cl)cc1`: the GI50 in the assay with 786-0 is 55.7 µM (inactive); with Hs-578T, > 100 µM (inactive); with IGROV-1, > 100 µM (inactive); in the assay on KM12, 43.9 µM (inactive); in the assay on MDA-N, 44.9 µM (inactive); in the assay with MOLT-4, 23.3 µM (inactive). Further, the GI50 in the assay with NCI-H23 was 88.5 µM (inactive); in the assay with NCI/ADR-RES, > 100 µM (inactive); in the assay on RPMI-8226, 22.2 µM (inactive); in the assay on SNB-19, > 100 µM (inactive); in the assay with SW-620, 28.8 µM (inactive); in the assay on TK-10, > 100 µM (inactive). The GI50 in the assay with U-251 is > 100 µM (inactive); in the assay with UO-31, 82.2 µM (inactive).
As to `CC(=O)/C(=C/NC(=S)N/N=C1\C(=O)Nc2ccccc21)C(=O)Nc1ccccc1C`, the GI50 in the assay with 786-0 was 82.2 µM (inactive); in the assay with CAKI-1, 47.4 µM (inactive); in the assay with IGROV-1, 95.3 µM (inactive); in the assay with KM12, 98.9 µM (inactive); in the assay on M14 it was > 100 µM (inactive); with MDA-MB-435 it was > 100 µM (inactive). The GI50 in the assay with MDA-N was > 100 µM (inactive); with MOLT-4 it was > 100 µM (inactive); with NCI-H23, > 100 µM (inactive); in the assay on NCI/ADR-RES, > 100 µM (inactive); in the assay on RXF 393, 83.8 µM (inactive); in the assay on SNB-19 it was > 100 µM (inactive). Also, the GI50 is > 100 µM (inactive) in the assay with SW-620, > 100 µM (inactive) in the assay on TK-10, > 100 µM (inactive) in the assay on U-251 and 44.3 µM (inactive) with UO-31.
For `CC1OC(OC2C(OC(=O)[C@]34CCC(C)(C)C[C@H]3C3=CC[C@@H]5[C@@]6(C)CC[C@H](OC7OC(CO)C(O)C(O)C7OC7OC(CO)C(O)C(O)C7O)C(C)(C)[C@@H]6CC[C@@]5(C)[C@]3(C)CC4)OCC(O)C2O)C(O)C(O)C1OC1OCC(O)C(O)C1O` (stereo partly specified), the GI50 with 786-0 is 8.3 µM (inactive); in the assay with CAKI-1 it was 5.01 µM (inactive); in the assay with Hs-578T, 20.7 µM (inactive); in the assay with IGROV-1, 16 µM (inactive); in the assay with KM12, 7.73 µM (inactive); in the assay with M14, 4.67 µM (inactive). Besides, the GI50 with MDA-MB-435 was 2.79 µM (inactive); with MOLT-4, 16.4 µM (inactive); in the assay on NCI-H23, 9.35 µM (inactive); in the assay on NCI-H522, 3.67 µM (inactive); with NCI/ADR-RES, 8.97 µM (inactive); with RPMI-8226 it was 12.9 µM (inactive). Besides, the GI50 with RXF 393 is 9.48 µM (inactive); in the assay on SNB-19, 14.5 µM (inactive); with SW-620, 16.1 µM (inactive); with TK-10, 8.51 µM (inactive); in the assay on U-251, 15.1 µM (inactive); in the assay with UO-31 it was 2.3 µM (inactive).
As for `Cc1ccc(NCCO)cc1`, the GI50 is > 100 µM (inactive) in the assay on 786-0; > 100 µM (inactive) in the assay on CAKI-1; > 100 µM (inactive) in the assay with IGROV-1; > 100 µM (inactive) in the assay with KM12; > 100 µM (inactive) in the assay on M14; 85.1 µM (inactive) in the assay with MOLT-4. For the same compound, the GI50 in the assay on NCI-H23, with NCI-H522, in the assay with RPMI-8226, in the assay with SNB-19, in the assay with SW-620 and with TK-10 was > 100 µM (inactive) in each case. The GI50 with U-251 and with UO-31 was > 100 µM (inactive) each time.
Regarding `CCOC(=O)C1=c2[nH]c3cccc4cccc(c43)n2C(=O)CC1`, the GI50 is 34.4 µM (inactive) with 786-0; > 100 µM (inactive) with CAKI-1; 49.4 µM (inactive) in the assay with IGROV-1; 26 µM (inactive) with KM12; > 100 µM (inactive) in the assay on M14; > 100 µM (inactive) with MDA-MB-435. In addition, the GI50 with MDA-N, in the assay with MOLT-4, with NCI-H23, with NCI/ADR-RES, in the assay on RPMI-8226 and in the assay on RXF 393 was > 100 µM (inactive) each time. The GI50 is > 100 µM (inactive) with SNB-19; 29 µM (inactive) in the assay with SW-620; > 100 µM (inactive) in the assay with TK-10; > 100 µM (inactive) with U-251; 38.6 µM (inactive) in the assay on UO-31.
Take `C#Cc1cc(-c2nc3ccccc3s2)ccc1N`: the GI50 in the assay with 786-0 was 34.4 µM (inactive); with CAKI-1 it was 20.5 µM (inactive); with IGROV-1, 0.615 µM (active); in the assay with KM12, 18.9 µM (inactive); in the assay with M14 it was 17.6 µM (inactive); with MDA-MB-435 it was 19.5 µM (inactive). Further, the GI50 in the assay with MDA-N was 33 µM (inactive); with MOLT-4 it was 22.6 µM (inactive); with NCI-H23 it was 16.5 µM (inactive); in the assay on NCI-H522 it was 15.8 µM (inactive); with NCI/ADR-RES, 27.7 µM (inactive); in the assay on RPMI-8226, 25.4 µM (inactive). For the same compound, the GI50 in the assay with RXF 393 was 25.8 µM (inactive); in the assay on SNB-19, 20 µM (inactive); with SW-620, 34.6 µM (inactive); with TK-10, 15.1 µM (inactive); in the assay with U-251, 20.6 µM (inactive); in the assay on UO-31, 14.2 µM (inactive).

These data come from ChEMBL document CHEMBL1201862, “PubChem BioAssay data set” (2004).
